The text below walks through data of patent US20200306244A1, “WNT INHIBITORS FOR USE IN THE TREATMENT OF FIBROSIS” (NOVARTIS AG, priority 2016, published 2020).

Series [1] can be described thus: PK analysis of blood samples after last dose in bleomycin-treated Balb/C mice. It counts as in vivo, mouse (Balb/C). Conditions: 5 mg/kg b.i.d. oral for 3 weeks; FIG. 2A. The method, then: (§1) The plasma concentrations of compound of formula (I′) were determined by a liquid chromatography-tandem mass spectrometry (LC/MS/MS) assay. Briefly, mouse plasma samples were extracted with a methanol-acetonitrile mixture (3:1, v/v). Supernatant was injected onto HPLC system with a Waters Atlantis T3 analytical column (2.1×30 mm, 3.5 μm, Waters Corp., Milford, Mass., USA). The mobile phases consisted of 0.1% formic acid in water (solvent A) and 0.1% formic acid in acetonitrile (solvent B), and a gradient elution method (0-1.5 min, 10% B to 95% B; 1.5-2.0 min, 95% B; 2.01 min, 10% B) at flow rate of 800 μL/min was employed for chromatographic separation. […] Multiple reaction monitoring (MRM) of compound of formula (I′) and internal standard was used for quantitative measurements, and peak integration was performed using Analyst™ 1.4 software. […] Pharmacokinetic parameters were calculated by non-compartmental regression analysis using an in house fitting program.
In a separate study to confirm the on-target activity of compound of formula (I′) in a mouse fibrosis model, bleomycin was injected in Balb/C mice, with or without orally dosed compound of formula (I′) at 5 mg/kg b.i.d. for 3 weeks. […] Tissue samples were collected 7 hour after the last dose, and the Wnt pathway target gene Axin2 mRNA expression level was measured with qRT-PCR, with the housekeeping gene, Gapdh, as an internal control.

Series [2] relates to bleomycin-induced skin fibrosis. Put plainly: Bleomycin-induced mouse skin fibrosis model, 3 weeks bleomycin then 3 weeks treatment. It counts as in vivo, mouse (female C57/BI6). Conditions: for dermal skin thickness: FIG. 1B. On the procedure: In the bleomycin model (FIG. 1 (A-E) and FIG. 2 (A-B)), fibrosis was induced in 6-week-old female C57/BI6 mice (Charles River, Sulzfeld, Germany) by injection of 100 μL 0.5 mg/ml bleomycin into a defined skin area of 1 cm' between the shoulders at the back every other day for up to six weeks. Control mice were injected with 0.9% NaCl, the solvent of bleomycin. Another group of mice received bleomycin injections for 3 weeks followed by saline (NaCl) injections for the next 3 weeks to control for spontaneous regression of fibrosis. Animals were treated with or without compound of formula (I′) at multiple dose levels twice daily for indicated weeks using suspension formulation containing 0.5% methylcellulose and 0.5% tween 80. Each group of mice were killed and the skin sections analyzed.
(§2) The anti-fibrotic effects of compound of Formula (I′) on experimental skin fibrosis was evaluated by quantification of dermal or hypodermal thickening, respectively, analyses of myofibroblast counts and assessment of hydroxyproline content. Tissue samples were fixed in 10% phosphate-buffered formalin for 24 hours, then embedded in paraffin and cut into […] sections. The slides were stained with hematoxylin and eosin for better visualization of the tissue structure.
(§3) The hydroxyproline content was measured according to the method as described in hydroxyproline content (Woessner J. F. Arch. Biochem. Biophys. […], 93, 440-447).
(§4) The dermal thickness was analyzed with a microscope by measuring the maximal distance between the epidermal-dermal junction and the dermal-subcutaneous fat junction at 4 different skin sections in each mouse.
(§5) For quantification of myofibroblasts, skin sections were deparaffinized and incubated with 5% bovine serum albumin for 60 minutes. Cells positive for α-smooth muscle actin (α-SMA) were detected by incubation with monoclonal anti-α-SMA antibodies (clone 1A4; Sigma-Aldrich, Steinheim, Germany) for 2 hours at room temperature followed by incubation with 3% hydrogen peroxide for 10 minutes. […] antibodies labeled with horseradish peroxidase were used as secondary antibodies. The expression of α-SMA was visualized with 3,3′-diaminobenzidine tetrahydrochloride. Monoclonal mouse IgG antibodies were used as controls
Porcupine Inhibitor Compound of Formula (I′) in the Bleomycin-Induced Mouse Fibrosis Model To test compound of formula (I′) for anti-fibrotic effects, bleomycin was injected in 6-week-old female C57/BI6 mice for 3 weeks to induce fibrosis (FIG. 1A). The control group was injected with saline. The bleomycin treated animals were further dosed with or without compound of formula (I′) b.i.d. for another 3 weeks. […] Similar observations have been obtained when examining the hydroxyproline content and myofibroblast count of mouse skin samples as shown in FIG. 1C and FIG. 1D.

The next series has as its system Tsk-1 mice fibrosis. As to the kind of experiment: Tight skin (Tsk-1) mouse genetic fibrosis model. The settings on record: for skin thickness: FIG. 3B; for myofibroblast count: FIG. 3D; for anti-fibrotic effects: Tsk-1 model. It counts as in vivo, mouse (Tsk-1). On the procedure: In the Tsk-1 model (FIG. 3(A-F)), treatment with compound of formula (I′) was started at the age of 5 weeks and was continued for 5 weeks. Animals were treated with or without compound of formula (I′) at multiple dose levels twice daily using suspension formulation containing 0.5% methylcellulose and 0.5% tween 80.
as §2, §3, §4
The Hypodermal thickness in TSK-1 mice was determined by measuring the thickness of the subcutaneous connective tissue beneath the panniculus carnosus at 4 different sites of the upper back in each mouse. The evaluation was performed by 2 independent examiners.
as §5
To further test the anti-fibrotic effects of compound of formula (I′), we turned to a mouse genetic fibrosis model, the tight skin model (Tsk-1). Tsk-1 mice contain a spontaneous duplication mutation of fibrillin-1 gene, which leads to activation of TGFβ signaling, and the subsequent fibrosis (increased in dermal and hypodermal thickness).
Five week old wild type or Tsk-1 mice were treated with or without compound of formula (I′) b.i.d. for 5 weeks (FIG. 3A).

Series [3] relates to bleomycin-induced skin fibrosis. As to the kind of experiment: Bleomycin mouse fibrosis model in Balb/C mice, skin thickness (FIG. 4). It counts as in vivo. The method, then:
To test compound of formula (I′) and compound of formula (I″) in a mouse fibrosis model, bleomycin was injected in Balb/C mice, with or without orally dosed compound of formula (I′) (5 mg/kg b.i.d.) and compound of formula (I″) (1 mg/kg b.i.d.) for 3 weeks. Skin tissue samples were taken at the end of the study and embedded in paraffin and skin thickness was measured (FIG. 4). Furthermore, the bleomycin treated animals were treated with or without orally dosed compound of formula (I′) at a dose of 5 mg/kg b.i.d. and compound of formula (I″) at a dose of 1 mg/kg b.i.d. for three weeks.

The subject of series [4] is Wnt pathway target gene Axin2 mRNA. Put plainly: Axin2 mRNA expression in skin tissue of bleomycin-treated Balb/C mice (qRT-PCR/TaqMan). The settings on record: 5 mg/kg b.i.d. oral 3 weeks, tissue 7 hour after last dose, Gapdh internal control; FIG. 2B. It counts as in vivo, mouse (Balb/C). The method, then:
Total RNA was isolated from tissue samples and processed to perform quantitative RT-PCR analysis of […] mRNA expression, with Gapdh serving as an internal control according to the manufacturer's instructions, as previously described.
Data were analyzed with SDS 2.0 software (Applied Biosystems), statistical analysis was conducted using PRISM.
In a separate study to confirm the on-target activity of compound of formula (I′) in a mouse fibrosis model, bleomycin was injected in Balb/C mice, with or without orally dosed compound of formula (I′) at 5 mg/kg b.i.d. for 3 weeks. Blood samples at multiple time points after the last dose were collected. […] Tissue samples were collected 7 hour after the last dose, and the Wnt pathway target gene Axin2 mRNA expression level was measured with qRT-PCR, with the housekeeping gene, Gapdh, as an internal control.

Series [5] in a line: Plasma exposure after last oral dose in Tsk-1 model. It counts as in vivo, mouse (Tsk-1). Conditions: FIG. 3E. The method, then:
as §1
Similar to that described for the bleomycin-induced mouse fibrosis model, plasma exposures of compound of formula (I′) in this tight skin model were also determined following the last oral dose, and PK data are shown in FIG. 3E.

Series [6] can be described thus: Plasma exposure after last oral dose in bleomycin model (C57/BI6). It counts as in vivo, mouse (female C57/BI6). Conditions: FIG. 1E. The method, then:
The plasma concentrations of compound of formula (I′) were determined by a liquid chromatography-tandem mass spectrometry (LC/MS/MS) assay. Briefly, mouse plasma samples were extracted with a methanol-acetonitrile mixture (3:1, v/v). Supernatant was injected onto HPLC system with a Waters Atlantis T3 analytical column (2.1×30 mm, 3.5 μm, Waters Corp., Milford, Mass., USA). The mobile phases consisted of 0.1% formic acid in water (solvent A) and 0.1% formic acid in acetonitrile (solvent B), and a gradient elution method (0-1.5 min, 10% B to 95% B; 1.5-2.0 min, 95% B; 2.01 min, 10% B) at flow rate of 800 μL/min was employed for chromatographic separation. Mass spectrometric analysis was performed on a SCIEX API-4000 triple quadruple mass spectrometer (Applied Biosystems, Foster City, Calif., USA) using atmospheric pressure chemical ionization (APCI) in the positive ion mode. Multiple reaction monitoring (MRM) of compound of formula (I′) and internal standard was used for quantitative measurements, and peak integration was performed using Analyst™ 1.4 software. The lower limit of detection for the assay was 1 ng/mL. Pharmacokinetic parameters were calculated by non-compartmental regression analysis using an in house fitting program.

The subject of series [7] is primary kidney fibroblasts. The settings on record: Madan et al. 2016; cited from earlier work.
The subject of another series is skin fibrosis markers. The settings on record: clinical trial; Rice et al. 2015; cited from earlier work.
Where [8] appears, read: all dose levels (2.5, 5, 10 mg/kg) b.i.d. for 5 weeks.

With `CC(=O)N1CCN(c2ccc(NC(=O)Cc3cnc(-c4ccnc(F)c4)c(C)c3)nc2)CC1` [compound of formula (I′), N-(5-(4-acetylpiperazin-1-yl)pyridin-2-yl)-2-(2′-fluoro-3-methyl-[2,4′-bipyridin]-5-yl)acetamide], the oral bioavailability result in [1] is “good oral bioavailability”. In addition, the dermal skin thickness entry was “reduced the skin thickness to levels lower than the baseline” in [2] (5 mg/kg and 10 mg/kg groups, oral b.i.d. 3 weeks); “reduced dermal skin thickness at all dose levels in a dose dependent manner” in series [2] (all dose levels (2.5, 5, 10 mg/kg) oral b.i.d. for 3 weeks after 3 weeks bleomycin); “induce the reduction of dermal skin thickness” in [3] (5 mg/kg b.i.d. oral for three weeks). Further, the “fibrosis reversal (hydroxyproline content and myofibroblast count)” value in [2] (5 and 10 mg/kg groups) was “strong evidence of fibrosis reversal”. The hydroxyproline content result in [2] (all dose levels (2.5, 5, 10 mg/kg) oral b.i.d., FIG. 1C) was “to levels lower than the baseline and closer to the control group”; with Tsk-1 mice fibrosis (all dose levels (2.5, 5, 10 mg/kg) b.i.d. for 5 weeks, FIG. 3C) it was “significant anti-fibrotic effects at all dose levels”. Further, the myofibroblast count entry was “to levels lower than the baseline and closer to the control group” in [2] (all dose levels (2.5, 5, 10 mg/kg) oral b.i.d., FIG. 1D); “reduction of the myofibroblast count towards control level” with Tsk-1 mice fibrosis (5 and 10 mg/kg groups); “significant anti-fibrotic effects at all dose levels” with Tsk-1 mice fibrosis (setting [8]). Also, the skin thickness entry in the series on Tsk-1 mice fibrosis (5 and 10 mg/kg groups) was “reduced to levels lower than the baseline and closer to the control group”; with Tsk-1 mice fibrosis (setting [8]), “significant anti-fibrotic effects at all dose levels”. Moreover, the hypodermal skin thickness result in the series with Tsk-1 mice fibrosis (H&E staining of mouse skin samples, FIG. 3F) is “significantly reduced hypodermal skin thickness”. Further, the anti-fibrotic effects result with Tsk-1 mice fibrosis is given as “robust anti-fibrotic effects”. The “reduction of Axin2 mRNA expression” value in [4] stood at 54%. For the same compound, the “plasma exposures compared with bleomycin model” value in series [5] (after last oral dose) is given as “comparable between the two separate experiments”. The “plasma exposures, dose proportionality” value in [5] (from […] to 10 mg/kg) and in series [6] (from […] to 10 mg/kg) was “increased approximately dose proportionally” in each case. Moreover, the “absorption and oral exposure” value in [6] (after last oral dose, 2.5-10 mg/kg b.i.d.) was “highly absorbed and showed high oral exposures”.
For the compound `Cc1cc(-c2ncc(CC(=O)Nc3ccc(-c4cnccn4)cn3)cc2C)ccn1` [compound of formula (I″), 2-(2′,3-dimethyl-[2,4′-bipyridin]-5-yl)-N-(5-(pyrazin-2-yl)pyridin-2-yl)acetamide], the anti-fibrotic effects entry with Tsk-1 mice fibrosis is reported as “robust anti-fibrotic effects”. Besides, the dermal skin thickness entry in series [3] (1 mg/kg b.i.d. oral for three weeks) was “induce the reduction of dermal skin thickness”. Further, in series [3] (1 mg/kg b.i.d. vs 5 mg/kg b.i.d.), the “in vivo activity compared to compound of Formula (I′)” value is reported as “showed even better in vivo activities”.
Turning to `Cc1cc(-c2ccc(CC(=O)Nc3ccc(-c4cccnc4)cc3)cc2)ccn1` [C59], the “TGFβ-induced Axing induction” value in series [7] is listed as “could abrogate TGFβ-induced Axing induction”.
As for Fresolimumab: anti-TGFβ antibody, the skin fibrosis markers entry in the series on skin fibrosis markers is reported as “Reduction of the skin fibrosis markers has been observed”.
